{
  "source": "paper PMC11843613",
  "about": "“Further Optimization of the mGlu1 PAM VU6024578/BI02982816: Discovery and Characterization of VU6033685” (ACS Chemical Neuroscience, 2025)",
  "key": {"[1]": {"assay": "Predicted hepatic clearance (c)", "assay_type": "in vitro ADME, c (presumably cynomolgus)", "procedure": "at half log concentrations in DMSO were further diluted in assay buffer. The compounds or DMSO vehicle were added to cells and incubated for 2.5 min and an EC20 concentration of glutamate was added and incubated for 1 min. An ECmax concentration of glutamate was also added to cells that were incubated with DMSO vehicle to accurately calculate the EC20 calcium response. Data were normalized by subtracting the basal florescent peak before EC20 agonist addition from the maximal peak elicited by EC20 agonist and PAMs. Using GraphPad Prism 5.0, the concentration response curves were generated and the potencies of the mGlu1 PAMs were determined.\nPlasma protein binding: The protein binding of each compound was determined in plasma via equilibrium dialysis employing RED Plates (ThermoFisher Scientific, Rochester, NY). Plasma was added to the 96 well plate containing test compound and mixed thoroughly for a final concentration of 5 µM. […]\nEach compound was assayed in triplicate within the same 96-well plate. Fraction unbound was determined using the following equation […]\nAfter a 5 min preincubation, the reaction was initiated by addition of NADPH (1 mM). […] The in vitro half-life (T 1/2, min, Eq. 1), intrinsic clearance (CLint, mL/min/kg, Eq. 2) and subsequent predicted hepatic clearance (CLhep, mL/min/kg, Eq. 3) was determined […]"}, "h mGlu5": {"biological_target": "h mGlu5 (Homo sapiens, UniProt P41594)", "sequence (P41594 21-1212)": "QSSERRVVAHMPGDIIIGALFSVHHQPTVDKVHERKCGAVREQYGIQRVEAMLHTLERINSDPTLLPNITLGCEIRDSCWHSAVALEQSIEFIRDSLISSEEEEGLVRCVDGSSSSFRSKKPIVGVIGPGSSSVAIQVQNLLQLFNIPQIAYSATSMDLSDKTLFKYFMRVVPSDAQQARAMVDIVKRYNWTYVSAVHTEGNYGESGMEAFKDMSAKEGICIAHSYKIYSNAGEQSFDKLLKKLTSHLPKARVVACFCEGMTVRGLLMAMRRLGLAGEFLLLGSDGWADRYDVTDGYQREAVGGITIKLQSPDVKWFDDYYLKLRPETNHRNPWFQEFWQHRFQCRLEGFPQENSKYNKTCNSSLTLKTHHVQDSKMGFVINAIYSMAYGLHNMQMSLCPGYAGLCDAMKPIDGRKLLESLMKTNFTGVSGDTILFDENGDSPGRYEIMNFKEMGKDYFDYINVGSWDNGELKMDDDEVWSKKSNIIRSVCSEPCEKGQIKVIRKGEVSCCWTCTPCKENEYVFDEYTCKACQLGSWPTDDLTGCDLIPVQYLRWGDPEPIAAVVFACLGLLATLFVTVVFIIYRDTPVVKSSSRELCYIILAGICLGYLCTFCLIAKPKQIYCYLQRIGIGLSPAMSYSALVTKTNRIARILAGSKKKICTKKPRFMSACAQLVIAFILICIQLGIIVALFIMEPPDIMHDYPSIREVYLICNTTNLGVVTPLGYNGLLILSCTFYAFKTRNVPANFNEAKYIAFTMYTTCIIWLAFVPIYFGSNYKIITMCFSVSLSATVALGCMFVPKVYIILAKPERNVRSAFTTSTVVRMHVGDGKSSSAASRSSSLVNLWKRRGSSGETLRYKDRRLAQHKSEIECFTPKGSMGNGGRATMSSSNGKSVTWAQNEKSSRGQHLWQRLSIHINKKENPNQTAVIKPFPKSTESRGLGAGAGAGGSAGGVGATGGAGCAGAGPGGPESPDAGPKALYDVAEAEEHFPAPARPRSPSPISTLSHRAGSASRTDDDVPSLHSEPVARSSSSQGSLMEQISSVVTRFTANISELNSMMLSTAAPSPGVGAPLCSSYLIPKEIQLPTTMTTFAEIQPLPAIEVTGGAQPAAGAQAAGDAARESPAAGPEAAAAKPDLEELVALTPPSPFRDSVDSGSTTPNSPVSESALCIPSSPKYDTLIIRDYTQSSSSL", "assay": "mGlu5 PAM functional assay", "assay_type": "cell-based"}, "[2]": {"assay": "Single IV bolus PK and tolerability in male beagle dogs", "assay_type": "in vivo", "conditions": "male beagle dog, 0.5 mg/kg IV bolus"}, "mouse mGlu1": {"biological_target": "mouse mGlu1 (Mus musculus, UniProt P97772)", "sequence (P97772 19-1199 limits assumed)": "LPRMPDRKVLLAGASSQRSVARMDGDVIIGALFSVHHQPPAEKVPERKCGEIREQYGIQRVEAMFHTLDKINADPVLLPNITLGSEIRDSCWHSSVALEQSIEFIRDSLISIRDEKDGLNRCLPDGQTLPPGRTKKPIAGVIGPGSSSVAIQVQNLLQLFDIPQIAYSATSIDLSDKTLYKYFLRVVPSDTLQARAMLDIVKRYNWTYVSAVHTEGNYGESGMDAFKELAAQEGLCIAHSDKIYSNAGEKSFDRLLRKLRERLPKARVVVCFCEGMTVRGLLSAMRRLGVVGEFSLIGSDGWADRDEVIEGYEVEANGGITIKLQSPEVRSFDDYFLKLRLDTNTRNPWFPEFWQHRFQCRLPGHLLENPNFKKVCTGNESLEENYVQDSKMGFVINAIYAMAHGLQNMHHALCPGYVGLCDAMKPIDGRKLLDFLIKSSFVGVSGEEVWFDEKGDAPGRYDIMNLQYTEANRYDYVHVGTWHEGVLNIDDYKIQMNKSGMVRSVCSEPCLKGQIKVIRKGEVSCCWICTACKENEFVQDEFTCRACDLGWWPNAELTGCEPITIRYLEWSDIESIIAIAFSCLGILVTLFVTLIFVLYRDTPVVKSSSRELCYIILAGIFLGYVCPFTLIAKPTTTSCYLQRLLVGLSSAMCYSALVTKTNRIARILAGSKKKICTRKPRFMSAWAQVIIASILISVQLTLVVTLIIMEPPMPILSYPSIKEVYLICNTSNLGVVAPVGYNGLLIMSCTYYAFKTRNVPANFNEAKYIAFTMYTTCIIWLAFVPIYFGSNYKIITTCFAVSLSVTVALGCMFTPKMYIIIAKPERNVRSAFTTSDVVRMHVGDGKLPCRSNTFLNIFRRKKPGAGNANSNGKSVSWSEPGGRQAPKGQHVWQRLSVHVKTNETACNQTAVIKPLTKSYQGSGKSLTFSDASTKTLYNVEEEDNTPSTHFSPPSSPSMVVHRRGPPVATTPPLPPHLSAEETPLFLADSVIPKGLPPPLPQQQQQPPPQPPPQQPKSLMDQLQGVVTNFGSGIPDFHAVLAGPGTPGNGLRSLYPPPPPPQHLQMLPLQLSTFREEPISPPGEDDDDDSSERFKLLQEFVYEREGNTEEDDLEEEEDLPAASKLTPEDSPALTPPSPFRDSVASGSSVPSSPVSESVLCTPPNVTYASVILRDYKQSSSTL", "assay": "mGlu1 PAM functional assay (mouse)", "assay_type": "cell-based"}, "[3]": {"system": "MK-801 disruption of novel object recognition in rats", "assay": "Rat MK-801-induced disruption of novel object recognition (NOR)", "assay_type": "in vivo", "procedure": "mode (5.0 kV spray voltage). The calibration curves were constructed in blank plasma. All data were analyzed using AB Sciex Analyst software v1.5.1.\nAll animal study procedures were approved by the Institutional Animal Care and Use Committee and were conducted in accordance with the National Institutes of Health regulations of animal care covered in Principles of Laboratory Animal Care (National Institutes of Health). […]\nGraphPad Prism (version 4.03, GraphPad, La Jolla, CA). […]\nThe animals are habituated to the novel object arenas for one day prior to testing. This is accomplished by placing the animal in the arena with no objects for 10 min and then placed back […]\ninto the home cage. The arena is then cleaned with 70% ethanol in between animals. The day of the test the animals are habituated to the dosing room for 2 hours. […]\nThe animals were then injected with MK-801 (0.075 mg/kg 1 ml/kg s.c.) and placed back in the homecage for 30 min. The animals are then placed into the arena with two identical familiar objects for ten minutes and then placed back into the home cage. The animals are then placed back into the arena with one of the familiar objects replaced with a novel object at 120 min after the familiar object exposure. The activity of the animals are recorded and the time spent exploring each of the objects is scored by a blinded observer. Recognition index is determined by subtracting the time spent with the […] divided by total time spent exploring. […]\nNaCl, 26 mM NaHCO3, 11mM D-glucose, 2.5 mM KCl, 2.45mM CaCl2, 1.25mM NaH2PO4 and 1.2mM MgSO4 which was supplemented with 5mM sodium ascorbate. Slices were recovered for at least 1 hour prior to recording. During recording slices were perfused with aCSF in the absence of ascorbate and presence of […] DhβE to block nAChR-mediated dopamine release. […]\nBriefly, a triangular voltage wave (-400 to +1000 mV at 300 V/sec) was applied to a fresh-cut carbon fiber electrode every 100 msec. […]"}},
  "note": "Entries after “also recorded” stand apart in the source; their conditions may differ.",
  "data": [
    {"compound": "Cc1nc(C2CC2)ccc1CNC(=O)c1cc(-n2cccn2)ccc1Cl", "note": "[compound 8]", "values": [
      {"measurement": "Predicted CLhep (c)", "setting": "[1]", "result": 33.2, "unit": "mL/min/kg"},
      {"measurement": "mGlu5 Glu Max", "setting": "h mGlu5", "result": 72, "unit": "%"},
      {"measurement": "EC50", "setting": "h mGlu5; Table 1, unit inferred", "result": 3760, "unit": "nM"},
      {"measurement": "adverse events in dogs", "setting": "[2]", "result": "all dogs displayed dizziness, salivation, and uncoordinated movements"},
      {"measurement": "clearance", "setting": "[2]; plasma, read-out: CLp (dog)", "result": 10, "unit": "mL/min/kg"},
      {"measurement": "Vd", "setting": "[2]; plasma, read-out: Vss (dog)", "result": 4.6, "unit": "L/kg"},
      {"measurement": "half-life", "setting": "[2]; plasma, read-out: t1/2 (dog) (converted)", "result": 6.5, "unit": "h"},
      {"measurement": "EC50", "setting": "mouse mGlu1", "result": 52, "unit": "nM"},
      {"measurement": "mouse mGlu1 Glu Max", "setting": "mouse mGlu1", "result": 102, "unit": "%"},
      {"measurement": "free brain level as fold of rat in vitro EC50 at 30 mg/kg in NOR", "setting": "[3]; rat PO 30 mg/kg", "result": "~5.2", "unit": "fold"},
      {"measurement": "free brain level at 30 mg/kg in NOR", "setting": "[3]; rat PO 30 mg/kg, 0.5% Natrasol/0.015% Tween 80 in water", "result": 579, "unit": "nM"},
      {"measurement": "reversal of MK-801 disruption of novel object recognition", "setting": "[3]; rat, PO, MK-801 0.075 mg/kg SC, one-way ANOVA p = 0.13", "result": "dose-dependently reverse the deficits induced by MK-801; also recorded: dose-dependently reversed"}
    ]}
  ]
}
